Reference: patent US8859587B2, “(2E)-3-phenyl-N-[2,2,2-Trifluoro-1-[[8-quinolineamino)thiomethyl]amino]ethyl]-2-acrylamide and pharmaceutical uses thereof” (Chinese PLA General Hospital, priority 2010, dated 2014)
Read-outs that look alike come from different tables or passages of the source. Marks after values point to notes of the source that are not given here.

Columns and labels:
Assay type in all cases: cell-based, Wistar rats
[1] = system: primary cardiac muscle cells; conditions: 48 h, MTT, normal cells
Experimental: Animal: newly born Wistar rats, rat age: within 24 h, male and female
(§1) The separation and culture of cardiomyocyte refer to the method of differential adhesion separation (Kreider, A. Messing, H. Doan, S. U. Kim, R. P. Lisak and D. E. Pleasure, Enrichment of Schwann cell cultures from neonatal rat sciatic nerve by differential adhesion, Brain Res 2 (1981), pp. 433-444.), Wistar neonate rats newly born within 24 h were used to obtain primary cardiac muscle cells.
The separated primary culture of cardiac muscle cells as obtained by the above method were inoculated in an amount of 10^4 cells per well to a 96-well plate, and the volume of each well was 100 μl (marginal wells were filled with sterile PBS). After being cultivated in 5% CO2 and 37° C. incubator for 4 d, they were added with the compound of Formula 1 at different concentrations (0.3 μM, 1 μM, 3 μM, 10 μM, 30 μM, 100 μM), 3 double-wells were set for each concentration, at the same time, zero setting wells (culture medium, MTT, DMSO), and control wells (culture medium, DMSO) were also set. After continuous inoculation for 48 h, each well was added with 20 μl of MTT solution (5 mg/ml, formulated with PBS (pH=7.4), i.e., 0.5% MTT), and the cultivation was continued for 4 h. After the end of cultivation, culture medium in wells was carefully sucked out. Each well was added with 150 μl of DMSO, shaken at a low speed in a shaking table for 10 min, so that the crystal was sufficiently dissolved. The optical density (OD) value of each well was measured at wavelength of 550 nm by enzyme-linked immunoassay instrument, and each well was repeatedly measured for 5 times and the results were recorded.

[2] = system: cardiac muscle cells induced by Tunicamycin (TM); experiment: Survival rate of TM-induced cardiac muscle cells detected by MTT method; conditions: for Cell survival rate (%): MTT
Experimental: as §1
The separated cardiac muscle cells were inoculated in an amount of 10^4 cells per well to a 96-well plate, and the volume of each well was 100 μl (marginal wells were filled with sterile PBS). […] After continuous inoculation, each well was added with 20 μl of MTT solution (5 mg/ml, formulated with PBS (pH=7.4), i.e., 0.5% MTT), and the cultivation was continued for 4 h. After the end of cultivation, culture medium in wells was carefully sucked out. Each well was added with 150 μl of DMSO, shaken at a low speed in a shaking table for 10 min, so that the crystal was sufficiently dissolved. The optical density (OD) value of each well was measured at wavelength of 490 nm by enzyme-linked immunoassay instrument, and each well was repeatedly measured for 3 times and the results were recorded. The cell survival rate at each time point was calculated according to: […], and a cell growth curve was drawn by using time as abscissa and optical density as ordinate.

[3] = system: primary cardiac muscle cells induced by TM; experiment: Cardiomyocyte apoptosis induced by TM, AnnexinV-FITC flow cytometer; conditions: for Cardiomyocyte apoptosis rate detected by flow cytometer (%): 24 h
Experimental: (§2) The primary cardiac muscle cells obtained by the method according to the culture method of primary cardiac muscle cells of Example 1 were added with tunicamycin (TM) on the 4th day to perform interference test. The cells were randomly divided into 5 groups: solvent control group (DMSO), TM interference group (5 μg/ml), Compound of Formula I+TM interference group (10 μM+5 μg/ml), Compound of Formula I interference group ([…]+5 μg/ml), Compound of Formula I interference group ([…]+5 μg/ml).
it is 24 h after drug interference, the cells were treated by the method of AnnexinV-FITC apoptosis kit, and the apoptosis was detected within 1 h by using a flow cytometer (BD ACScalibur, US Becton-Dickinson Company). For each sample, 14000 cells were collected and analyzed, the test was repeated for 3 times, and the average value was used as a result.

[4] = system: primary cardiac muscle cells induced by TM; experiment: Cardiomyocyte apoptosis induced by TM, TUNEL detection; conditions: for TUNEL detection (%) cardiomyocyte apoptosis rate: 24 h, n = 6
Experimental: as §2
It was 24 h after drug interference, the apoptotic cells were detected by terminal deoxynucleotidyl transferase-mediated biotinylated UTP nick end labeling (TUNEL) method, and the cells were treated according to the specification of kit. The cells treated with 0.1 mg/ml DNase I and growing on a glass slide were used as positive control. 5 or more visual fields were randomly selected under light microscope, the apoptotic cells (brown yellow granules seen in nucleus) among the cells were counted. Apoptosis rat=(number of positively stained nuclei/number of all nuclei)×100%.

## O=C(/C=C/c1ccccc1)NC(NC(=S)Nc1cccc2cccnc12)C(Cl)(Cl)Cl (stereo not shown) [Compound of Formula I, (2E)-3-phenyl-N-[2,2,2-trichloro-1-[[(8-quinolylamino)thiomethyl]amino]ethyl]-2-acrylamide]
[1]; 0.3 μM
  Cardiomyocyte survival rate (%): 98.8562 ± 6.7316^a %
[1]; 1 μM
  Cardiomyocyte survival rate (%): 91.6667 ± 7.6257^a %
[1]; 3 μM
  Cardiomyocyte survival rate (%): 94.5261 ± 3.7997^a %
[1]; 10 μM
  Cardiomyocyte survival rate (%): 102.7778 ± 3.0645^a %
[1]; 30 μM
  Cardiomyocyte survival rate (%): 105.8007 ± 3.2639^a %
[1]; 100 μM
  Cardiomyocyte survival rate (%): 104.2484 ± 7.3625^a %
[2]; 5 μM pretreatment 30 min + TM 5 μg/ml
  Cell survival rate (%): 82.6106 ± 8.1018 %
[2]; 10 μM pretreatment 30 min + TM 5 μg/ml
  Cell survival rate (%): 83.8371 ± 8.2608 %
[2]; 20 μM pretreatment 30 min + TM 5 μg/ml
  Cell survival rate (%): 84.6255 ± 5.5519 %
[2]; 40 μM + TM 5 μg/ml
  Cell survival rate (%): 85.4139 ± 5.6916 %
[2]; pretreatment in various concentrations, p<0.05
  cell survival rate in comparison with the TM group: significant increase of cell survival rate
[3]; 10 μM + TM 5 μg/ml
  Cardiomyocyte apoptosis rate detected by flow cytometer (%): 22.98 ± 1.35^ab %
[3]; 20 μM + TM 5 μg/ml
  Cardiomyocyte apoptosis rate detected by flow cytometer (%): 20.13 ± 0.87^ab %
[3]; 40 μM + TM 5 μg/ml
  Cardiomyocyte apoptosis rate detected by flow cytometer (%): 18.64 ± 0.83^ab %
[3]; 10, 20, 40 μM, P<0.05
  apoptosis rates in comparison with the TM group (flow cytometer): significantly decreased apoptosis rates
[4]; 10 μM + TM 5 μg/mL
  TUNEL detection (%) cardiomyocyte apoptosis rate: 25.75 ± 0.97 ^b %
[4]; 20 μM + TM 5 μg/mL
  TUNEL detection (%) cardiomyocyte apoptosis rate: 24.94 ± 0.82 ^b %
[4]; 40 μM + TM 5 μg/mL
  TUNEL detection (%) cardiomyocyte apoptosis rate: 21.15 ± 0.85 ^b c %
[4]; 10, 20, 40 μM, P<0.05
  apoptosis rate in comparison with the TM interference group (TUNEL): significant decrease in apoptosis rate
